# Patent publication US7160892B2, “Pyrimidone compounds and pharmaceutical compositions containing the same” (Eisai Co., Ltd., priority 2001, dated 2007)
# How the values were obtained:
# [1] = target: T1, human adenosine A1 receptor (Homo sapiens, UniProt P30542); experiment: Measurement of the binding ability to adenosine A1 receptor (3H-CCPA displacement, CHOK1 membranes); details: read-out: K1(nM) A1
# T1 construct: expressed in transfected cells; host or cells: CHOK1 cells (membrane sample)
# T1 sequence (P30542 1-326): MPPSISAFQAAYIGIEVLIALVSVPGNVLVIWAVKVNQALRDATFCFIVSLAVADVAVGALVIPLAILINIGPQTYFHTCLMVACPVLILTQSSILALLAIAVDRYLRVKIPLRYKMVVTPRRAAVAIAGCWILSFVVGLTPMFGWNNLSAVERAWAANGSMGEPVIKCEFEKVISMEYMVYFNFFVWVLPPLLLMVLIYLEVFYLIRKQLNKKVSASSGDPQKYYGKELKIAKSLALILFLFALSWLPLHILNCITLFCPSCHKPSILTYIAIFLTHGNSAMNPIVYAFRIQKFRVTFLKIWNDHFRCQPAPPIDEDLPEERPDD
# Experimental: Measurement of the Binding Ability to Adenosine A1 Receptor
# A human adenosine A1 receptor cDNA was expressed in excess in CHOK1 cells, and this membrane sample was suspended at a protein concentration of 66.7 μg/ml in 20 mM HEPES buffer, pH 7.4 (10 mM MgCl2, 100 mM NaCl). To 0.45 ml of this membrane sample suspension were added 0.025 ml of 60 nM tritium-labeled chlorocyclopentyl adenosine (^3H—CCPA, from NEN Ltd.) and 0.025 ml of test compound. This mixture was left at 30° C. for 120 minutes, filtered rapidly under suction through a glass fiber filter (GF/B, from Whatman), and immediately washed twice with 5 ml of 50 mM water-cooled Tris-HCl buffer. Thereafter, the glass fiber filter was transferred to a vial, scintillator was added thereto, and the radioactivity on the filter was measured by a liquid scintillation counter. […]
# In the above formula, the total binding means ^3H-CCPA-bound radioactivity in the absence of the test compound; the nonspecific binding means ^3H-CCPA-bound radioactivity in the presence of 100 μM RPIA ([R]-[1-methyl-2-phenylethyl] adenosine); and the binding in the presence of the test compound means ^3H-CCPA-bound radioactivity in the presence of the test compound at predetermined concentrations. The inhibition constant (Ki value) in the table was determined from the formula of Cheng-Prusoff.
# adenosine A2A receptor = target: T2, adenosine A2A receptor (Homo sapiens, UniProt P29274); experiment: Measurement of the binding ability to adenosine A2A receptor (3H-CGS21680 displacement, membrane sample); details: read-out: K1(nM) A2A
# T2 construct: purchased Receptor Biology Inc
# Experimental: Measurement of the Binding Ability to Adenosine A2A Receptor
# An experiment of inhibition of binding to adenosine A2A receptor was conducted using a membrane sample (Receptor Biology Inc.) where an adenosine A2A receptor cDNA was expressed in excess. This membrane sample was suspended at a protein concentration of 22.2 μg/ml in 20 mM HEPES buffer, pH 7.4 (10 mM MgCl2 and 100 mM NaCl). To 0.45 ml of this membrane sample suspension were added 0.025 ml of 500 nM tritium-labeled 2-p-[2-carboxyethyl]phenetylamino-5′-N-ethylarboxyamide adenosine (^3H-CGS21680, from NEN) and 0.025 ml of test compound. […] Thereafter, the glass fiber filter was transferred to a vial, scintillator was added thereto, and the radioactivity on the filter was measured by a liquid scintillation counter. […]
# Here, the total binding means ^3H-CGS21680-bound radioactivity in the […] of the test compound; the nonspecific binding means ^3H-CGS21680-bound radioactivity in the presence of 100 μM RPIA; and the binding in the […] of the test compound means ^3H-CGS21680-bound radioactivity in the […] of the test compound at predetermined concentrations. The inhibition constant (Ki value) in the table was determined from the formula of Cheng-Prusoff.
# [2] = target: T3, human adenosine A2B receptor (Homo sapiens, UniProt P29275); experiment: Inhibition of NECA-stimulated production of cAMP in adenosine A2B receptor-expressing cells; type: cell-based; details: read-out: I C50(nM) A2B
# T3 construct: expressed in transfected cells; host or cells: CHOK1 cells
# T3 sequence (P29275 1-332): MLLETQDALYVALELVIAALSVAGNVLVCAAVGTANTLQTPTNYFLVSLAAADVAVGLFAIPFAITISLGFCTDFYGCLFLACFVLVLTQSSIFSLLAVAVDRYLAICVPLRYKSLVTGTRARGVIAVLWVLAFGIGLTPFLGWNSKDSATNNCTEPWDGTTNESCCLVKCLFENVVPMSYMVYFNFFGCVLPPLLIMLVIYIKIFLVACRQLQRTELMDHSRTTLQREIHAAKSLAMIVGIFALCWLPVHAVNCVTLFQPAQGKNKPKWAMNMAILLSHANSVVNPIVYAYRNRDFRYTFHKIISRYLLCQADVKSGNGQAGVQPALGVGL
# Experimental: Experiment of Inhibition of NECA-Stimulated Production of cAMP in Adenosine A2B Receptor-Expressing Cells
# CHOK1 cells where human adenosine A2B receptor had been expressed in excess were plated onto a 24-well plate at a density of 1.5×10^5 cells/well, cultured overnight, and used in the experiment. […] That is, the adhering cells were washed twice with 2 ml/well Krebs-Ringer buffer solution (containing 0.1% BSA; pH 7.4) and pre-incubated for 30 minutes in a volume of 0.5 ml/well. […] After pre-incubation for 15 minutes, the reaction was terminated with 0.1 N HCl in a volume of 300 μl/well. Measurement of intracellular cAMP was carried out using a cAMP enzyme immunoassay kit produced by Amersham.
# T2 sequence (P29274 whole entry): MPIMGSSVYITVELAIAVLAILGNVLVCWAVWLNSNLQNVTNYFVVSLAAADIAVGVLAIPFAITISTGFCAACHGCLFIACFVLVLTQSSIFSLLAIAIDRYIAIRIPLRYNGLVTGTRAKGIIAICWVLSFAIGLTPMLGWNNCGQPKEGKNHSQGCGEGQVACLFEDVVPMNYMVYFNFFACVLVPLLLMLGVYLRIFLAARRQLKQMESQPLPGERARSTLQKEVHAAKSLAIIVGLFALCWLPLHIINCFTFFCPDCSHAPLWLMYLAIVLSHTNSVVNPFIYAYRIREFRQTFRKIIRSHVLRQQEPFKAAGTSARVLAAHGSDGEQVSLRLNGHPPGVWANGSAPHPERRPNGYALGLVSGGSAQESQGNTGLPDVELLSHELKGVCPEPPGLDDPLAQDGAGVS
Ki [1] [nM],Ki (adenosine A2A receptor) [nM],IC50 [2] [nM],Compound
1110,345,256,"Nc1nc(-c2ccco2)c(-c2ccncc2)c(=O)[nH]1 [Example 2, 2-Amino-6-(2-furyl)-5-(4-pyridyl)-3,4-dihydro-4-pyrimidinone]"
966,493,71,"Cn1c(N)nc(-c2ccco2)c(-c2ccncc2)c1=O [Example 7, 2-Amino-6-(2-furyl)-3-methyl-5-(4-pyridyl)-3,4-dihydro-4-pyrimidinone]"
